Data on four compounds can be found in PMC8635108, “Identification of Novel Type Three Secretion System (T3SS) Inhibitors by Computational Methods and Anti-Salmonella Evaluations” (Frontiers in Pharmacology, 2021).

In brackets after ≈: the same amount, converted by molar mass.

What all share (type): cell-based
In data set [1] the test system is S. typhimurium invasion of human epithelial cell line (Henle 407). Put plainly: Salmonella invasion assay. The conditions noted are these: Henle 407 cells, triplicate. As to the method: The effect of T3SS inhibitor candidates on the ability of S. typhimurium to invade a cultured human epithelial cell line (Henle 407) was performed in a method similar to one previously described ([Chatterjee et al., 2011]). Henle 407 cells were grown in DMEM with 10% fetal calf serum at 37°C in 5% CO2 in 24-well plates. The plasmid pRK2-SipD with WT SipD was electroporated into the S. typhimurium SipD ^− strain and single colonies were inoculated into LB media supplemented with 25 mg/L trimethoprim, 50 mg/L ampicillin, 50 mg/L kanamycin and grown in standing cultures overnight. A 10 ml LB culture with 1 mM IPTG was inoculated with 1 ml of overnight bacterial growth, and incubated at 37°C on standing for 2.5–3 h. Approximately 15–30 uL of bacterial suspension was added with 300 uL DMEM into the Henle 407 cells and incubated at 37°C for 60 min to allow invasion before the suspension was removed by aspiration. The Henle 407 cells were incubated with fresh DMEM with 100 mg/L of gentamycin for 1.5 h, aspirated, rinsed with DMEM, and lysed with 1% Triton X-100 to free the entrapped bacteria. The number of bacterial colonies, which correlated with invasiveness, was estimated by serial dilution and plating. The Salmonella invasion assay was done in triplicate.

Another data set has as its system S. abortus equi. The experiment in a line: In vitro anti-Salmonella bioassay (MIC). The conditions noted are these: Salmonella enterica, 37°C 24 h, mean ± SD, three times. As to the method: (§1) The anti-Salmonella activities of these compounds were performed according to the previous reported protocol ([Wei et al., 2016]), using the minimum inhibitory concentration (MIC) with different strains, including S. enteritidis, S. typhi, S. typhimurium, S. paratyphi, S. and abortus equi. Gatifloxacin was used as positive controls. The test compounds 5, 19, and 32 in DMSO were prepared and then poured into 96-well plates. The final concentration of o.39–100 μg/ml underwent a twofold serial dilution. The bacteria were incubated with a series of different concentrations of compounds at 37°C for 24 h. The microbacterial growth was measured at the absorption of 630 nm. All experiments were carried out in triplicate.

The next data set concerns S. enteritidis. The experiment in a line: In vitro anti-Salmonella bioassay (MIC). Particulars: Salmonella enterica, 37°C 24 h, mean ± SD, three times. As to the method: as §1
Another data set relates to S. paratyphi. The experiment in a line: In vitro anti-Salmonella bioassay (MIC). Particulars: Salmonella enterica, 24 h. As to the method: as §1
For the next data set, the system named is S. typhimurium. Put plainly: In vitro anti-Salmonella bioassay (MIC). Particulars: Salmonella enterica, 37°C 24 h, mean ± SD, three times. As to the method: as §1
Another data set concerns S. typhi. Put plainly: In vitro anti-Salmonella bioassay (MIC). The conditions noted are these: Salmonella enterica, 37°C 24 h, mean ± SD, three times. As to the method: as §1
Data set [2] can be described thus: In vitro cytotoxicity assay (MTT). Particulars: mouse, RAW 264.7 cells, read-out: cell viability. As to the method: To study the cytotoxic effects of compounds on cell viability, the RAW 264.7 cells were seeded into 96-well plates at 1 ×10^4 cells/well and allowed to attach for 24 h. The medium was replaced with 100 μL medium containing the indicated concentrations of compounds and further incubated for 24 h. Each well was added 10 μL MTT (5 mg/ml in PBS) and the plates were incubated for 4 h at 37°C. Supernatants were aspirated and formed formazan was dissolved in 100 μL of dimethyl sulfoxide (DMSO). The optical density (OD) was measured at an absorbance wavelength of 490 nm using a Microplate Reader (Tecan, Switzerland).

In data set [3] the test system is S. typhimurium in RAW 264.7 cells. Put plainly: Intracellular killing assay. Particulars: 1 h, vs non-treated S. typhimurium group. As to the method: The intracellular killing experiment was performed according to the previous reported protocol ([Birhanu et al., 2018]). RAW 264.7 cells (10^5 cells/ml) were cultured in 24-well plates, and then treated with S. Typhimurium (10^7 CFU/ml) and further incubated for 45 min. After the cells were washed, the compound 5 (8 μg/ml), […] (19 μg/ml) and 32 (34 μg/ml) or gatifloxacin (3 μg/ml) were respectively added and incubated for 1 h at 37 °C. Finally, cells were treated with gentamicin (100 μg/ml) for 1 h and lysed with 0.1% of trition × 100 before being serially diluted and plated on LB agar. The cells infected with S. Typhimurium without treatment was used as the control.

Broadly, the MIC is the least concentration at which growth counts as inhibited. For orientation: viability means a read-out of living cells in per cent, often relative to untreated cells. In the case of `Nc1c(-c2ccc(Cl)cc2)cnn1-c1ccc(C(=O)O)cc1` [Compound 32], the effect on invasiveness entry in data set [1] is reported as “most drastic effect on the invasiveness”. The MIC against S. abortus equi was determined as 1.2 ± 0.3 µg/mL (≈ 3.82 µM); in the data set with S. enteritidis, 22 ± 3 µg/mL (≈ 70.1 µM); with S. paratyphi, 22 ± 2.6 µg/mL (≈ 70.1 µM); with S. typhimurium, 34.3 ± 3.8 µg/mL (≈ 109 µM); in the data set on S. typhi, 44 ± 4.6 µg/mL (≈ 140 µM). Further, in data set [2] (34 μg/ml), the viability at 24 h, 34 μg/ml was 86.4 ± 6.04%. In data set [3] (34 μg/ml), the “decrease of intracellular survival of S. typhimurium” value (“decrease” for short) was 52.2%.

In the case of `COc1c(N2CCNC(C)C2)c(F)cc2c(=O)c(C(=O)O)cn(C3CC3)c12` (stereo not drawn) [Gatifloxacin, reference compound], the minimum inhibitory concentration (MIC) is 2 ± 1 µg/mL (≈ 5.33 µM) against S. abortus equi; 7.7 ± 1.5 µg/mL (≈ 20.5 µM) against S. enteritidis; 3 ± 1.7 µg/mL (≈ 7.99 µM) against S. paratyphi; 3.3 ± 1.2 µg/mL (≈ 8.79 µM) in the data set with S. typhimurium; 9.7 ± 2.5 µg/mL (≈ 25.8 µM) in the data set with S. typhi. Further, the “intracellular survival suppression of S. typhimurium” value in data set [3] (3 μg/ml) came to 60.2%.

As to `O=C(O)c1ccc(Cn2nnc3sc4c(c3c2=O)CCCC4)cc1` [Compound 5], in data set [1], the effect on invasiveness entry is “most drastic effect on the invasiveness”. The MIC stood at 5 ± 1 µg/mL (≈ 14.6 µM) in the data set on S. abortus equi; 31.6 ± 3.6 µg/mL (≈ 92.6 µM) in the data set on S. enteritidis; 24.3 ± 3.5 µg/mL (≈ 71.2 µM) in the data set on S. paratyphi; 8 ± 2 µg/mL (≈ 23.4 µM) in the data set on S. typhimurium; 12.3 ± 2.1 µg/mL (≈ 36 µM) against S. typhi. For the same compound, the viability at 24 h, 8 μg/ml in data set [2] (8 μg/ml) amounted to 84.2 ± 5.45%. Further, the “decrease” value in data set [3] (8 μg/ml) is given as 44.4%.

With `Nc1c(S(=O)(=O)O)ccc2c1C(=O)c1ccccc1C2=O` [Compound 19], the effect on invasiveness entry in data set [1] was “most drastic effect on the invasiveness”. Also, the minimal inhibitory concentration (MIC) against S. abortus equi worked out at 3 ± 1 µg/mL (≈ 9.89 µM); in the data set with S. enteritidis it was 53.3 ± 4.9 µg/mL (≈ 176 µM); against S. paratyphi, 16.3 ± 3.1 µg/mL (≈ 53.7 µM); with S. typhimurium, 19.1 ± 3.1 µg/mL (≈ 63 µM); against S. typhi, 31.6 ± 5 µg/mL (≈ 104 µM). For the same compound, in data set [2] (19 μg/ml), the viability at 24 h, 19 μg/ml was found to be 91.5 ± 7.09%. Besides, the “decrease” value in data set [3] (19 μg/ml) was 32.5%.
